Source: US12281122B1, “PI3K inhibitors” (Cogent Biosciences, Inc., priority 2023, dated 2025)

Key:
[1] = tested on: T47D (PI3Kα-H1047R) cell line; experiment: HTRF phospho-AKT(S473) cell assay in T47D cells; assay type: cell-based, human
Summary of the method: (§1)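 HTRF read-out of phospho-AKT(S473) in lysates gave IC50 values after 2 h compound exposure at 37° C. Dose series was 12 points at 1:3, topping at 5 μM for T47D and 10 μM for SKBR3. Only SKBR3 received 70 ng/ml PDGF-BB during the last 15 minutes.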

[2] = tested on: SKBR3 (PI3Kα-Wild Type) cell line; experiment: HTRF phospho-AKT(S473) cell assay in SKBR3 cells; assay type: cell-based, human
Summary of the method: as §1

[3] = Homo sapiens; T47D (PI3Kα-H1047R) cells, HTRF phospho-AKT(S473), 2 hours compound incubation
[4] = Homo sapiens, SK-BR-3; SKBR3 (PI3Kα-Wild Type) cells, HTRF phospho-AKT(S473), 2 hours compound incubation, PDGF-BB stimulated
[5] = Homo sapiens; HTRF phospho-AKT(S473), T47D (PI3Kα-H1047R) cells, 2 hours compound incubation
[6] = Homo sapiens, SK-BR-3; HTRF phospho-AKT(S473), SKBR3 (PI3Kα-Wild Type) cells, 2 hours compound incubation, PDGF-BB stimulated

Compound | IC50 [1, 3] [nM] | IC50 [2, 4] [nM] | IC50 [1, 5] [nM] | IC50 [2, 6] [nM]
Cc1cc([C@@H](C)Nc2ccc(Cl)nc2C(=O)NS(C)(=O)=O)c2nc(N3Cc4cnn(-c5ccc(C#N)cc5)c4C3)n(C)c(=O)c2c1 [Compound 240, (R)-6-chloro-3-((1-(2-(1-(4-cyanophenyl)-4,6-dihydropyrrolo[3,4-c]pyrazol-5(1H)-yl)-3,6-dimethyl-4-oxo-3,4-dihydroquinazolin-8-yl)ethyl)amino)-N-(methylsulfonyl) picolinamide] | < 250 | 1000 to 5000 |  | 
Cc1cc([C@@H](C)Nc2ccc(Cl)nc2C(=O)NS(C)(=O)=O)c2nc(N3C[C@H]4C[C@@H](C3)C4c3n[nH]cc3F)n(C)c(=O)c2c1 (mixture of isomers) [Compound 650, 6-chloro-3-(((1R)-1-(2-((1R,5S)-6-(4-fluoro-1H-pyrazol-3-yl)-3-azabicyclo[3.1.1]heptan-3-yl)-3,6-dimethyl-4-oxo-3,4-dihydroquinazolin-8-yl)ethyl)amino)-N-(methylsulfonyl) picolinamide] |  |  | 250 to 500 | ≥ 5000
Cc1cc([C@@H](C)Nc2ccc(Cl)nc2C(=O)NS(C)(=O)=O)c2nc(N3Cc4cn(CC(F)F)nc4C3)n(C)c(=O)c2c1 [Compound 230, (R)-6-chloro-3-((1-(2-(2-(2,2-difluoroethyl)-2,6-dihydropyrrolo[3,4-c]pyrazol-5(4H)-yl)-3,6-dimethyl-4-oxo-3,4-dihydroquinazolin-8-yl)ethyl)amino)-N-(methylsulfonyl) picolinamide] | < 250 | 1000 to 5000 |  | 
Cc1cc([C@@H](C)Nc2ccc(Cl)nc2C(=O)NS(C)(=O)=O)c2nc(-c3ccc(-c4cnn(C)c4)cn3)n(C)c(=O)c2c1 [Compound 285, (R)-6-chloro-3-((1-(3,6-dimethyl-2-(5-(1-methyl-1H-pyrazol-4-yl)pyridin-2-yl)-4-oxo-3,4-dihydroquinazolin-8-yl)ethyl)amino)-N-(methylsulfonyl) picolinamide] | < 250 | 1000 to 5000 |  | 
Cc1cc([C@@H](C)Nc2ccc(Cl)nc2C(=O)NS(C)(=O)=O)c2nc(-c3ccc(OC[C@@H]4CCN(C)CC4(F)F)nc3)n(C)c(=O)c2c1 [Compound 390, 6-chloro-3-(((R)-1-(2-(6-(((S)-3,3-difluoro-1-methylpiperidin-4-yl)methoxy)pyridin-3-yl)-3,6-dimethyl-4-oxo-3,4-dihydroquinazolin-8-yl)ethyl)amino)-N-(methylsulfonyl) picolinamide] | < 250 | ≥ 5000 |  | 
Cc1cc([C@@H](C)Nc2ccc(Cl)nc2C(=O)NS(C)(=O)=O)c2nc(N3CCC(c4cn(C(C)C)nn4)CC3)n(C)c(=O)c2c1 [Compound 573, (R)-6-chloro-3-((1-(2-(4-(1-isopropyl-1H-1,2,3-triazol-4-yl)piperidin-1-yl)-3,6-dimethyl-4-oxo-3,4-dihydroquinazolin-8-yl)ethyl)amino)-N-(methylsulfonyl) picolinamide] |  |  | < 250 | 1000 to 5000
Cc1cc([C@@H](C)Nc2ccc(Cl)nc2C(=O)NS(C)(=O)=O)c2nc(-c3ccc4c(c3)C(=O)N(C)CC4)n(C)c(=O)c2c1 [Compound 779, (R)-6-chloro-3-((1-(3,6-dimethyl-2-(2-methyl-1-oxo-1,2,3,4-tetrahydroisoquinolin-7-yl)-4-oxo-3,4-dihydroquinazolin-8-yl)ethyl)amino)-N-(methylsulfonyl) picolinamide] |  |  | < 250 | 1000 to 5000

The remaining lines, values ahead:

IC50 [1, 3] [nM] | IC50 [2, 4] [nM] | IC50 [1, 5] [nM] | IC50 [2, 6] [nM] | Compound
< 250 | 1000 to 5000 |  |  | Cc1cc([C@@H](C)Nc2ccc(Cl)nc2C(=O)NS(C)(=O)=O)c2nc(N3CCc4nn(C)cc4C3)n(C)c(=O)c2c1 [Compound 286, (R)-6-chloro-3-((1-(3,6-dimethyl-2-(2-methyl-2,4,6,7-tetrahydro-5H-pyrazolo[4,3-c]pyridin-5-yl)-4-oxo-3,4-dihydroquinazolin-8-yl)ethyl)amino)-N-(methylsulfonyl) picolinamide]
 |  | 250 to 500 | 1000 to 5000 | Cc1cc([C@@H](C)Nc2ccc(Cl)nc2C(=O)NS(C)(=O)=O)c2nc(N3C[C@@H]4[C@H](C3)[C@H]4c3nc(C)no3)n(C)c(=O)c2c1 [Compound 742, 6-chloro-3-(((R)-1-(3,6-dimethyl-2-((1R,5S,6R)-6-(3-methyl-1,2,4-oxadiazol-5-yl)-3-azabicyclo[3.1.0]hexan-3-yl)-4-oxo-3,4-dihydroquinazolin-8-yl)ethyl)amino)-N-(methylsulfonyl) picolinamide]
250 to 500 | ≥ 5000 |  |  | Cc1cc([C@@H](C)Nc2ccc(Cl)nc2C(=O)NS(C)(=O)=O)c2nc(N3CCC[C@@H](Oc4cnccn4)C3)n(C)c(=O)c2c1 [Compound 375, 6-chloro-3-(((R)-1-(3,6-dimethyl-4-oxo-2-((R)-3-(pyrazin-2-yloxy)piperidin-1-yl)-3,4-dihydroquinazolin-8-yl)ethyl)amino)-N-(methylsulfonyl) picolinamide]
 |  | < 250 | 1000 to 5000 | Cc1cc([C@@H](C)Nc2ccc(Cl)nc2C(=O)NS(C)(=O)=O)c2nc(N3C[C@@H]4[C@H](C3)[C@H]4c3nnc(C)s3)n(C)c(=O)c2c1 [Compound 598, 6-chloro-3-(((R)-1-(3,6-dimethyl-2-((1R,5S,6R)-6-(5-methyl-1,3,4-thiadiazol-2-yl)-3-azabicyclo[3.1.0]hexan-3-yl)-4-oxo-3,4-dihydroquinazolin-8-yl)ethyl)amino)-N-(methylsulfonyl) picolinamide]
< 250 | 1000 to 5000 |  |  | Cc1cc([C@@H](C)Nc2ccc(Cl)nc2C(=O)NS(C)(=O)=O)c2nc(N3Cc4cnn(-c5cccnc5C)c4C3)n(C)c(=O)c2c1 [Compound 252, (R)-6-chloro-3-((1-(3,6-dimethyl-2-(1-(2-methylpyridin-3-yl)-4,6-dihydropyrrolo[3,4-c]pyrazol-5(1H)-yl)-4-oxo-3,4-dihydroquinazolin-8-yl)ethyl)amino)-N-(methylsulfonyl) picolinamide]
 |  | 250 to 500 | ≥ 5000 | Cc1cc([C@@H](C)Nc2ccc(Cl)nc2C(=O)NS(C)(=O)=O)c2nc(N3C[C@@H]4[C@H](C3)[C@H]4c3nn(C4CC4)cc3F)n(C)c(=O)c2c1 [Compound 569, 6-chloro-3-(((R)-1-(2-((1R,5S,6R)-6-(1-cyclopropyl-4-fluoro-1H-pyrazol-3-yl)-3-azabicyclo[3.1.0]hexan-3-yl)-3,6-dimethyl-4-oxo-3,4-dihydroquinazolin-8-yl)ethyl)amino)-N-(methylsulfonyl) picolinamide]
< 250 | 1000 to 5000 |  |  | Cc1cc([C@@H](C)Nc2ccc(Cl)nc2C(=O)NS(C)(=O)=O)c2nc(N3C[C@@H]4[C@H](C3)[C@H]4c3cnc(C)nc3)n(C)c(=O)c2c1 [Compound 405, 6-chloro-3-(((R)-1-(3,6-dimethyl-2-((1R,5S,6S)-6-(2-methylpyrimidin-5-yl)-3-azabicyclo[3.1.0]hexan-3-yl)-4-oxo-3,4-dihydroquinazolin-8-yl)ethyl)amino)-N-(methylsulfonyl) picolinamide]
 |  | 250 to 500 | ≥ 5000 | Cc1cc([C@@H](C)Nc2ccc(Cl)nc2C(=O)NS(C)(=O)=O)c2nc(N3C[C@H]4C[C@@H]3CN4c3nc(C)ncc3F)n(C)c(=O)c2c1 [Compound 605, 6-chloro-3-(((R)-1-(2-((1R,4R)-5-(5-fluoro-2-methylpyrimidin-4-yl)-2,5-diazabicyclo [2.2.1]heptan-2-yl)-3,6-dimethyl-4-oxo-3,4-dihydroquinazolin-8-yl)ethyl)amino)-N-(methylsulfonyl) picolinamide]
